Assay results taken from the NIST ThermoML archive (doi:10.1016/j.jct.2015.09.030).
± gives the expanded uncertainty stated by the source.

Assays:
[1] = Liquid; for viscosity: Falling or rolling sphere viscometry; for mass density: Vibrating tube method
[2] = xn = mol fraction of the nth substance listed; conditions: 100 kPa, Liquid, x2 = 0; for mass density: Vibrating tube method; for viscosity: Falling or rolling sphere viscometry

In the case of `CO` [methanol], the viscosity ([1]; 290.15 K, 100 kPa) is reported as 0.6069 ± 0.061 mPa·s, the mass density ([1]; 290.15 K, 100 kPa) is reported as 797.3 ± 6 kg/m3 and the viscosity ([1]; 293.15 K, 100 kPa) is reported as 0.5853 ± 0.059 mPa·s. It also gave a mass density ([1]; 293.15 K, 100 kPa) of 793.5 ± 6 kg/m3, a viscosity ([1]; 295.15 K, 100 kPa) of 0.5571 ± 0.056 mPa·s and a mass density ([1]; 295.15 K, 100 kPa) of 790.8 ± 6 kg/m3. It also gave a viscosity ([1]; 298.15 K, 100 kPa) of 0.5446 ± 0.055 mPa·s, a mass density ([1]; 298.15 K, 100 kPa) of 786.8 ± 6 kg/m3 and a viscosity ([1]; 303.15 K, 100 kPa) of 0.5122 ± 0.051 mPa·s. The mass density ([1]; 303.15 K, 100 kPa) was 781.4 ± 6 kg/m3, the viscosity ([1]; 308.15 K, 100 kPa) was 0.4794 ± 0.048 mPa·s and the mass density ([1]; 308.15 K, 100 kPa) was 777.3 ± 6 kg/m3. It also gave a viscosity ([1]; 313.15 K, 100 kPa) of 0.4508 ± 0.045 mPa·s, a mass density ([1]; 313.15 K, 100 kPa) of 772.1 ± 6 kg/m3 and a viscosity ([1]; 318.15 K, 100 kPa) of 0.4317 ± 0.043 mPa·s. The mass density ([1]; 318.15 K, 100 kPa) was 767.7 ± 6 kg/m3, the viscosity ([1]; 323.15 K, 100 kPa) was 0.4051 ± 0.041 mPa·s and the mass density ([1]; 323.15 K, 100 kPa) was 762.1 ± 6 kg/m3.

For `CO` [methanol] + CCCCCCCCCCCCCC[P+](CCCCCC)(CCCCCC)CCCCCC.[Cl-], the mass density ([2]; 290.15 K) was 797.3 ± 6 kg/m3, the mass density ([2]; 293.15 K) was 793.5 ± 6 kg/m3 and the viscosity ([2]; 295.15 K) was 0.557 ± 0.056 mPa·s. The mass density ([2]; 295.15 K) was 790.8 ± 6 kg/m3, the viscosity ([2]; 298.15 K) was 0.544 ± 0.055 mPa·s and the mass density ([2]; 298.15 K) was 786.8 ± 6 kg/m3. For the same compound, the viscosity ([2]; 303.15 K) was 0.512 ± 0.051 mPa·s, the mass density ([2]; 303.15 K) was 781.4 ± 6 kg/m3 and the viscosity ([2]; 308.15 K) was 0.479 ± 0.048 mPa·s. The mass density ([2]; 308.15 K) was 777.3 ± 6 kg/m3, the viscosity ([2]; 313.15 K) was 0.451 ± 0.045 mPa·s and the mass density ([2]; 313.15 K) was 772.1 ± 6 kg/m3.

For `CCCCCCCCCCCCCC[P+](CCCCCC)(CCCCCC)CCCCCC.[Cl-]` [trihexyl(tetradecyl)phosphonium chloride], the mass density ([1]; 290.15 K, 101.33 kPa) was 897.5 ± 6.2 kg/m3, the viscosity ([1]; 293.15 K, 101.33 kPa) was 1996 ± 300 mPa·s and the mass density ([1]; 293.15 K, 101.33 kPa) was 895.8 ± 6.2 kg/m3. For the same compound, the viscosity ([1]; 295.15 K, 101.33 kPa) was 1996 ± 300 mPa·s, the mass density ([1]; 295.15 K, 101.33 kPa) was 894.6 ± 6.2 kg/m3 and the viscosity ([1]; 298.15 K, 101.33 kPa) was 1683 ± 250 mPa·s. It also gave a mass density ([1]; 298.15 K, 101.33 kPa) of 892.8 ± 6.2 kg/m3, a viscosity ([1]; 303.15 K, 101.33 kPa) of 1174 ± 160 mPa·s and a mass density ([1]; 303.15 K, 101.33 kPa) of 889.8 ± 6.2 kg/m3. It also gave a viscosity ([1]; 308.15 K, 101.33 kPa) of 824.1 ± 110 mPa·s, a mass density ([1]; 308.15 K, 101.33 kPa) of 886.9 ± 6.2 kg/m3 and a viscosity ([1]; 313.15 K, 101.33 kPa) of 593.7 ± 75 mPa·s. For the same compound, the mass density ([1]; 313.15 K, 101.33 kPa) was 883.9 ± 6.2 kg/m3, the viscosity ([1]; 318.15 K, 101.33 kPa) was 399.9 ± 48 mPa·s and the mass density ([1]; 318.15 K, 101.33 kPa) was 880.8 ± 6.2 kg/m3. For the same compound, the viscosity ([1]; 323.15 K, 101.33 kPa) was 325.9 ± 38 mPa·s and the mass density ([1]; 323.15 K, 101.33 kPa) was 878 ± 6.2 kg/m3.
